Experimental data taken from ChEMBL document CHEMBL1201862, “PubChem BioAssay data set” (2004).
Calls of active or inactive are those of the source. No rule for the calls is given here.

Molecular target: T1, DNA repair protein RAD52 homolog (Homo sapiens, UniProt P43351)
T1 sequence (P43351 whole entry): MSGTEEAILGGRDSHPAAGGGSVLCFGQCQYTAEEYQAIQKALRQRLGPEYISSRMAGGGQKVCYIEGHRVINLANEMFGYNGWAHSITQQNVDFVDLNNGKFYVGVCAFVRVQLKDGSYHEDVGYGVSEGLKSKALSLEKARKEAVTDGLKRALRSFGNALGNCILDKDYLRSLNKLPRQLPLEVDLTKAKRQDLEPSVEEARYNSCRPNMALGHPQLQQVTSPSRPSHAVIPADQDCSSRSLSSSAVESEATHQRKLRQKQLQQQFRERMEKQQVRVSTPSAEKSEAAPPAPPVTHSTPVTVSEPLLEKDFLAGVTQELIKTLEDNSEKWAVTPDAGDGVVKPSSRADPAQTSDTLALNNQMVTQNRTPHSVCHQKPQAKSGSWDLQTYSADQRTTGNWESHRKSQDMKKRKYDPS
Format: functional, biochemical

## CCN(CC)CCOc1ccc2c(c1)C(=NNC(=O)c1ccccn1)c1cc(OCCN(CC)CC)ccc1-2
  AC50: < 150 nM (active)
